Entries after “also recorded” stand apart in the source; their conditions may differ.
Columns and labels:
DMS-114 SCLC cells = test: Sensitization of SCLC cells to etoposide; type: cell-based; conditions: Homo sapiens; DMS-114, single agent
Procedure: (§1) Therefore, to determine if MP470 would increase sensitivity to etoposide treatment, SCLC cells were treated with the agents individually and in combination. […] Two sub-IC50 doses of MP470.HCl were tested in combination with etoposide to evaluate possible synergism and a resulting lower IC50 value for etoposide in each of the cell lines.

DMS-153 SCLC cells = test: Sensitization of SCLC cells to etoposide; type: cell-based; conditions: Homo sapiens; DMS-153, single agent
Procedure: as §1

[1] = test system: OVCAR-3 ovarian cancer cells; test: OVCAR-3 ovarian cancer tumor model in nude mice; type: in vivo
Procedure: MP470 and MP470 HCl were tested against different tumor types in athymic nude mice as summarized below (Table 8). Various formulations and routes were evaluated. HT-29 colorectal cancer cells and SB-CL2 melanoma cells were implanted subcutaneously, while A549 lung cancer cells, MiaPaCa-2 pancreatic cancer cells, TT medullary thyroid cancer cells, and OVCAR-3 ovarian cancer cells were implanted […] in the hind flank of mice. All animals were allowed to develop medium-sized (80-125 mg) tumors, before initiation of dosing. Tumor volume and mouse bodyweight were followed over the course of the study.
OVCAR-3 Ovarian Cancer Model—Forty-two nude mice were implanted subcutaneously with OVCAR-3 ovarian carcinoma, the hydrochloride salt of MP470 (MP470.HCl) was formulated in 100% corn oil and delivered orally. MP470.HCl, cisplatin, and irinotecan were administered to animals alone or in combination. When administered alone, MP470.HCl was given qd at 100 or 200 mg/kg, irinotecan was given q3d at 20 mg/kg, and cisplatin was given q7d at 5 mg/kg. In combination studies, 100 mg/kg MP470.HCl was given qd and combined with 20 mg/kg irinotecan given q3d or 5 mg/kg cisplatin given q7d. One animal in the 200 mg/kg MP470.HCl group died on Day 1, while five animals in the MP470.HCl/cisplatin combination group died (one on Day 5, Day 6, Day 7, Day, 20, and Day 27). Treatment with each individual agent (200 mg/kg MP470.HCl, 46.2 mm3/d; 20 mg/kg irinotecan, 38.53 mm3/d; 5 mg/kg cisplatin, 33.8 mm3/d) reduced the tumor growth rate below that of vehicle-treated mice (78.04 mm3/d). […] In contrast, when MP470.HCl and cisplatin were used in combination, the tumor growth rate was reduced to 10.22 mm3/d. However, the 100 mg/kg dose of MP470.HCl in combination with cisplatin caused enhanced toxicity and most animals in this group died during the 21-day treatment period. The enhanced toxicity was related to the level of the dose used, so a subsequent study was conducted using half the dose, 50 mg/kg/day as described below.

[2] = test system: Erk phosphorylation in Panc-1 Pancreas Cancer Cells; test: Erk phosphorylation after PMA stimulation; type: cell-based; conditions: PMA-stimulated cells; compared to PMA alone and PD98059; hydrochloride
Description: FIG. 11 illustrates the Erk phosphorylation changes in Panc-1 Pancreas Cancer Cells after MP470 hydrochloride exposure
Regulation of Erk phosphorolation—MP470.HCl activity was screened against potential biomarkers, including proteins, such as Erk that are activated downstream of c-Kit. Erk was selected from potential candidate markers to evaluate changes in protein phosphorylation in treated cancer cell lines because MP470 appeared to regulate this event. […] Exposure to PMA is known to rapidly stimulate Erk phosphorylation and was used as a positive control.

Rad51 = Rad51 immunohistochemistry in dog colon and skin; type: in vivo; conditions: for Rad 51 Result: 2 wk post treatment with 300 mg/kg/day × 28, dog 302786
Procedure: A study was performed to develop a testing procedure for validation of IHC Biomarker RAD51 for the staining of tissue micro arrays (TMA). An experimental […] antibody was used (Spring Bioscience Anti-RAD51) and run using testis and lung as control tissues. The antibody was run using the Dako Envision+ detection kit. The incubation times ranged from 15 minutes to 60 minutes. Each experiment was run with and without an antigen retrieval solution with a pH of 6.0. The dilutions used for the Spring Bioscience Anti-RAD51 ranged from 1:50 to 1:500. The best results were obtained when incubated for 30 minutes, with a dilution of 1:50, using the Dako Envision+ detection kit, with antigen retrieval at the pH of 6.0 based on manual scoring by a board certified pathologist. […] Rare nuclear staining was observed.
A study was conducted to investigate the changes in RAD51 expression levels after chronic treatment with MP470 hydrochloride salt two weeks post treatment with oral once daily dosing for 28 days at 300 mg/kg compared to the control (vehicle only, no drug) to healthy dogs. Tissue specimens from the colon and skin were analyzed for RAD51 expression using the procedure described above. The data in Table 9 confirm that MP470.HCl suppresses and sustains the suppression of RAD51 expression levels in normal proliferating tissues such as in colon and skin.
Dose-response effects of MP470.HCl on Rad51 were evaluated in normal beagle dogs that were administered MP470.HCl orally. Colon and skin tissues were obtained from five different groups, including vehicle control group, three groups of differing dose levels of MP470.HCl following a 28 day daily treatment with MP470.HCl, and a post-treatment recovery group two weeks after treatment daily for 28 days with 300 mg/kg of MP470.HCl. These tissue specimens were stained for Rad51 using immunohistochemistry (IHC) techniques on an automated staining platform. A mouse Anti-Rad51 antibody was used for this purpose. Positive and negative controls were used to validate the staining procedure. The data is reported as a percentage based on the scoring of the staining intensity by a board-certified pathologist. Staining intensity was reported as mean percent for n=3 in all cases except the recovery group, where n=1.

[3] = test system: SF-767 glioblastoma multiforme cells; test: MTS cell death assay with ionizing radiation; type: cell-based
Procedure: SF-767 glioblastoma multiforme cells were treated with MP470 at 1 μM, 800c Gy IR (ionizing radiation), or a combination of both.

[4] = rat, in vivo, iv, 10 mg/kg
Procedure: In the first IV administration study of MP470 free base, six groups of 6 rats were to be exposed to either vehicle alone or MP470 at 10, 20, 40, 80, or 160 mg/kg. Dosing was administered via a tail vein over approximately 30 minutes. Animals were observed immediately and 10 minutes and one hour after dosing, and daily thereafter for 4 additional days. […] Red urine and lethargy were present at 1 hour post dosing, but animals recovered and appeared normal thereafter. […] All other animals were euthanized and necropsied at day 4 appeared normal.

Row | SMILES | IC50 (DMS-114 SCLC cells) [µM] | IC50 (DMS-153 SCLC cells) [µM] | animals that died ([1]; 200 mg/kg MP470.HCl group, Day 1) | tumor growth rate ([1]; 200 mg/kg qd oral in corn oil (vehicle 78.04)) [mm3/d] | Outcome: tumor growth ([1]; OVCAR-3, PO 100 or 200 mg/kg, qd × 28, corn oil, hydrochloride) | level of Erk phosphorylation (P-Erk) [2] | Rad51 staining Skin (%) (Rad51; 30 mg/Kg oral daily 28 days, n=3 (vehicle 20)) | Rad51 staining Colon (%) (Rad51; 30 mg/Kg oral daily 28 days, n=3 (vehicle 71)) | Rad51 staining Skin (%) (Rad51; 100 mg/Kg oral daily 28 days, n=3 (vehicle 20)) | Rad51 staining Colon (%) (Rad51; 100 mg/Kg oral daily 28 days, n=3 (vehicle 71)) | Rad51 staining Skin (%) (Rad51; 300 mg/Kg oral daily 28 days, n=3 (vehicle 20)) | Rad51 staining Colon (%) (Rad51; 300 mg/Kg oral daily 28 days, n=3 (vehicle 71)) | suppression of Rad51 in tissues of dogs (Rad51; 30, 100, 300 mg/kg oral daily 28 days) | Rad 51 Result (Rad51; Colon) [%] | Rad51 staining Skin (%) (Rad51; Recovery (2 wk post treatment with 300 mg/kg), n=1 (vehicle 20)) | Rad51 staining Colon (%) (Rad51; Recovery (2 wk post treatment with 300 mg/kg), n=1 (vehicle 71)) | Rad 51 Result (Rad51; Skin) [%] | Increase in cell death over either agent alone ([3]; MP470 1 μM combined with 800c Gy ionizing radiation) | Cell death (MTS assay) ([3]; MP470 at 1 μM alone) | mortality at the low dose [4]
1 | Cl.S=C(NCc1ccc2c(c1)OCO2)N1CCN(c2ncnc3c2oc2ccccc23)CC1 [MP470.HCl, 4-[1]benzofuro[3,2-d]pyrimidin-4-yl-N-(1,3-benzodioxol-5-ylmethyl)piperazine-1-carbothioamide hydrochloride] | 0.98 | 5.14 | One | 46.2 | Dose dependency | reduced the level of Erk phosphorylation; also recorded: reduced the level of P-Erk below that of PD98059 | 14 | 61 | 17 | 56 | 11 | 35 | dose-dependent suppression of Rad51 | 58 | 7 | 19 | 12 | – | – | –
2 | S=C(NCc1ccc2c(c1)OCO2)N1CCN(c2ncnc3c2oc2ccccc23)CC1 [MP470, 4-[1]benzofuro[3,2-d]pyrimidin-4-yl-N-(1,3-benzodioxol-5-ylmethyl)piperazine-1-carbothioamide] | – | – | – | – | – | – | – | – | – | – | – | – | – | – | – | – | – | more than two-fold | will induce cell death | the third rat died after dosing
